Measured values: publication PMC4685874, “Bromotyrosine-derived alkaloids from the Caribbean sponge Aplysina lacunosa” (Beilstein Journal of Organic Chemistry, 2015)

Experiments:
Format in all cases: cell-based
[1] = WST-1 cell proliferation (cytotoxicity) assay, MCF-7; conditions: human, MCF-7 breast cancer cell line, WST-1, incubated for 5 days
Method: (§1) The cytotoxicity was determined using WST-1 cell proliferation assays. Targeting cell lines are L929 mouse fibroblasts, KB-31 epidermoid carcinoma, and MCF-7 breast cancer cell lines which were incubated for 5 days with the test substances. The acute toxicity was determined using the FS4-LTM conditional immortalization human fibroblasts cell line which was incubated for 24 hours with the test compounds.

[2] = Acute toxicity, WST-1 assay, FS4-LTM; conditions: human, FS4-LTM conditionally immortalized fibroblasts, FS4-LTM conditional immortalization human fibroblasts, incubated for 24 hours; read-out: Cytotoxicity (acute toxicity) IC50 FS4-LTM
Method: as §1

[3] = system: FS4-LTM conditional immortalization human fibroblasts; assay: Acute toxicity, WST-1 assay, FS4-LTM; conditions: incubated for 24 hours, read-out: Cytotoxicity (acute toxicity) IC50 FS4-LTM
Method: as §1

[4] = system: KB-31 epidermoid carcinoma cells; assay: WST-1 cell proliferation (cytotoxicity) assay, KB-31; conditions: WST-1, incubated for 5 days
Method: as §1

[5] = as above; conditions: human, WST-1, incubated for 5 days
Method: as §1

[6] = system: MCF-7 breast cancer cell line; assay: WST-1 cell proliferation (cytotoxicity) assay, MCF-7; conditions: WST-1, incubated for 5 days
Method: as §1

[7] = WST-1 cell proliferation (cytotoxicity) assay, L929; conditions: L929 mouse fibroblasts, WST-1, incubated for 5 days
Method: as §1

[8] = KB-31 epidermoid carcinoma cells

COC1=C(Br)[C@H](O)[C@@]2(C=C1Br)CC(C(=O)NCC(O)COc1c(Br)cc(C(O)CNC(=O)C3=NO[C@]4(C=C(Br)C(OC)=C(Br)[C@@H]4O)C3)cc1Br)=NO2 (stereo partly shown) [Compound 5, fistularin-3]
IC50 at 5 days [1]: 207 µM

COC1=C(Br)[C@H](O)[C@@]2(C=C1Br)CC(C(=O)NCCc1cc(Br)c(OCCCN)c(Br)c1)=NO2 [Compound 10, hexadellin B]
IC50 at 24 hours [2]: 73.4 µM | IC50 at 5 days ([1]; MCF-7 breast cancer cells): 90.6 µM

COC(=O)Cc1cc(Br)c(O)c(Br)c1O [Compound 17, subereaphenol B]
IC50 at 5 days ([1]; MCF-7 breast cancer cells): 64.8 µM

COC1=C(Br)[C@H](O)[C@@]2(C=C1Br)CC(C(=O)NCCCOc1c(Br)cc(C(O)CNC(=O)C3=NO[C@]4(C=C(Br)C(OC)=C(Br)[C@@H]4O)C3)cc1Br)=NO2 (stereo partly shown) [Compound 8, 11-deoxyfistularin-3]
IC50 at 24 hours [2]: 87.3 µM | IC50 at 5 days ([1]; MCF-7 breast cancer cells): 47.2 µM

COC1=C(Br)[C@H](O)[C@@]2(C=C1Br)CC(C(=O)NC[C@@H](O)c1cc(Br)c(OCCCNC(C)=O)c(Br)c1)=NO2 [Compound 2, aplysinin A]
IC50 at 24 hours [2]: 32 µM | IC50 [3]: 32.2 µM | IC50 [4]: 25.8 µM | IC50 at 5 days [5, 8]: 26 µM | IC50 at 5 days ([1]; MCF-7 breast cancer cells): 78 µM | IC50 [6]: 77.5 µM

COC1=C(Br)[C@@H]2OC(=O)C[C@]2(O)C=C1Br [Compound 16, aeroplysinin-2]
IC50 at 5 days [1]: 96.3 µM

COC1=C(Br)[C@H](O)[C@@]2(C=C1Br)CC(C(=O)NCCCOc1c(Br)cc(CCNC(=O)C3=NO[C@]4(C=C(Br)C(OC)=C(Br)[C@@H]4O)C3)cc1Br)=NO2 [Compound 6, 11,19-dideoxyfistularin-3]
IC50 at 5 days [7]: 118 µM | IC50 at 5 days ([5]; KB-31 epidermoid carcinoma): 88.2 µM

COC1=C(Br)[C@H](O)[C@@]2(C=C1Br)CC(C(=O)NCCCOc1ccc(CCN)cc1Br)=NO2 [Compound 4, 14-debromoaraplysillin I]
IC50 at 5 days [7]: 94.3 µM | IC50 at 5 days ([1]; MCF-7 breast cancer cells): 78.6 µM

COC1=C(Br)[C@H](O)[C@@]2(C=C1Br)CC(C(=O)NCCc1cc(Br)c(OCC(O)CNC(=O)C3=NO[C@]4(C=C(Br)C(OC)=C(Br)[C@@H]4O)C3)c(Br)c1)=NO2 (stereo partly shown) [Compound 7, 19-deoxyfistularin-3]
IC50 at 5 days [1]: 60 µM

COC1=C(Br)[C@H](O)[C@@]2(C=C1Br)CC(C(=O)NCCCOc1ccc([C@H](O)CNC(=O)C3=NO[C@]4(C=C(Br)C(OC)=C(Br)[C@@H]4O)C3)cc1Br)=NO2 [Compound 1, 14-debromo-11-deoxyfistularin-3]
IC50 [4]: 68.8 µM | IC50 at 5 days [5, 8]: 69 µM

CNc1nc(CCCNC(=O)C2=NO[C@]3(C=C(Br)C(OC)=C(Br)[C@@H]3O)C2)c[nH]1 [Compound 15, N-methyl-aerophobin-2]
IC50 at 5 days [7]: 55.9 µM | IC50 at 5 days [5, 8]: 48.9 µM
